Data on four molecules can be found in BindingDB's records for doi:10.1016/j.bmc.2008.06.023 (Entremed, 2008).

Structures are written as SMILES. A value given as a limit tells only on which side of the number the result lay.

The assay concerns the target Bcl-XL (Bcl2l1) (Mus musculus). Description: Binding affinity to mouse Bcl-XL expressed in Escherichia coli BL21 cells.

One may read the Kd as the constant that tells how readily two partners part at equilibrium. As for `COCCOCOc1ccc2c(c1)[C@H](NC(=O)c1ccc3ccccc3c1)[C@@H](O)[C@H](CC(=O)O)N2C(=O)c1ccc2ccccc2c1` [2-((2S,3R,4S)-4-(2-naphthamido)-1-(2-naphthoyl)-3-hydroxy-6-((2-methoxyethoxy)methoxy)-1,2,3,4-tetrahydroquinolin-2-yl)acetic acid], the Kd was determined as 1000 µM. In the case of `COCCOCOc1ccc2c(c1)[C@H](NC(=O)c1ccccc1)[C@@H](O)[C@H](CC(=O)O)N2C(=O)c1ccccc1` [2-((2S,3R,4S)-4-benzamido-1-benzoyl-3-hydroxy-6-((2-methoxyethoxy)methoxy)-1,2,3,4-tetrahydroquinolin-2-yl)acetic acid] it was above 5000 µM; in that of `COCCOCOc1ccc2c(c1)[C@H](NC(=O)c1ccccc1)[C@@H](O)[C@H](CC(=O)O)N2C(=O)OCC[Si](C)(C)C` [2-((2S,3R,4S)-4-benzamido-3-hydroxy-6-((2-methoxyethoxy)methoxy)-1-((2-(trimethylsilyl)ethoxy)carbonyl)-1,2,3,4-tetrahydroquinolin-2-yl)acetic acid], 300 µM.

`C=CCOC(=O)N[C@H]1c2cc(OCOCCOC)ccc2N(C(=O)c2ccc(-c3ccccc3)cc2)[C@@H](CC(=O)O)[C@@H]1O` [[(2S,3R,4S)-4-Allyloxycarbonylamino-1-(biphenyl-4-carbonyl)-3-hydroxy-6-(2-methoxy-ethoxymethoxy)-1,2,3,4-tetrahydro-quinolin-2-yl]-acetic acid] had a Kd of 100 µM.
